Test results as given in patent US20250282768A1 (Janssen Pharmaceutica NV, priority 2022, published 2025).

Test system: p-IKKa levels in L363 (NIK translocated multiple myeloma) cells
Experiment: Assay 2: Effect of compounds on p-IKKa levels in L363 (NIK translocated multiple myeloma) cells
Assay type: cell-based
Conditions: Homo sapiens, L-363, 6 h, read-out: Assay 2 IC50 (nM), p-IKKa (Ser 176/180) in BAFF stimulated L363 cells with MG132, 6 h; average if tested more than once
Method in brief: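 Read-out is p-IKKa Ser176/180 by AlphaLISA SureFire in lysates. Cells were BAFF-primed (250 ng/ml) overnight or left unstimulated, then exposed 6 h at 37 °C to compound with MG132 (10 μM), 0.3% DMSO. IC50 from sigmoidal curve fit, normalized between stimulated and unstimulated controls.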

Row | Structure (SMILES) | IC50 [nM]
1 | CN1CC[C@@](O)(c2cn(-c3cccc(-c4ccnc(Nc5cnn6c5CCCC6)n4)n3)nn2)C1=O [Example 251, (R)-3-Hydroxy-1-methyl-3-(1-(6-(2-((4,5,6,7-tetrahydropyrazolo[1,5-a]pyridin-3-yl)amino)pyrimidin-4-yl)pyridin-2-yl)-1H-1,2,3-triazol-4-yl)pyrrolidin-2-one] | < 50
2 | CN1CC[C@@](O)(c2cc(-c3cccc(-c4ccnc(N[C@@H]5CCCC[C@@H]5O)n4)n3)no2)C1=O (single isomer, unassigned) [Example 336] | > 500
3 | Cc1nn(C)c(C)c1Nc1nccc(-c2cccc(-c3cc([C@]4(O)CCN(C)C4=O)on3)n2)n1 [Example 289, (R)-3-Hydroxy-1-methyl-3-(3-(6-(2-((1,3,5-trimethyl-1H-pyrazol-4-yl)amino)pyrimidin-4-yl)pyridin-2-yl)isoxazol-5-yl)pyrrolidin-2-one] | > 500
4 | CCn1ccc(Nc2nccc(-c3cccc(-c4cc([C@]5(O)CCN(C)C5=O)on4)n3)n2)n1 [Example 410, (R)-3-(3-(6-(2-((1-Ethyl-1H-pyrazol-3-yl)amino)pyrimidin-4-yl)pyridin-2-yl)isoxazol-5-yl)-3-hydroxy-1-methylpyrrolidin-2-one] | < 50
5 | CN1CCn2nc(Nc3nccc(-c4cccc(-c5cc([C@]6(O)CCN(C)C6=O)on5)c4)n3)cc2C1=O [Example 23, (R)-2-((4-(3-(5-(3-Hydroxy-1-methyl-2-oxopyrrolidin-3-yl)isoxazol-3-yl)phenyl)pyrimidin-2-yl)amino)-5-methyl-6,7-dihydropyrazolo[1,5-a]pyrazin-4(5H)-one] | 50 to 500
6 | CN1CC[C@@](O)(c2cc(-c3cccc(-c4ccnc(Nc5cnn6c5CCC6)n4)n3)no2)C1=O [Example 221, (R)-3-(3-(6-(2-((5,6-Dihydro-4H-pyrrolo[1,2-b]pyrazol-3-yl)amino)pyrimidin-4-yl)pyridin-2-yl)isoxazol-5-yl)-3-hydroxy-1-methylpyrrolidin-2-one] | < 50
7 | CN1CC[C@@](O)(c2cc(-c3cccc(-c4ccnc(Nc5cnn(C)c5)n4)c3)no2)C1=O [Example 72, (R)-3-Hydroxy-1-methyl-3-(3-(3-(2-((1-methyl-1H-pyrazol-4-yl)amino)pyrimidin-4-yl)phenyl)isoxazol-5-yl)pyrrolidin-2-one] | > 500
8 | CN1CC[C@@](O)(c2cc(-c3cccc(-c4ccnc(Nc5cnn(C)c5C(F)(F)F)n4)n3)no2)C1=O (single isomer, unassigned) [Example 132, (*R)-3-Hydroxy-1-methyl-3-(3-(6-(2-((1-methyl-5-(trifluoromethyl)-1H-pyrazol-4-yl)amino)pyrimidin-4-yl)pyridin-2-yl)isoxazol-5-yl)pyrrolidin-2-one] | < 50
9 | CN1CC[C@@](O)(c2cc(-c3cccc(-c4ccnc(Nc5cn(C)nc5N)n4)c3)no2)C1=O [Example 415, (R)-3-(3-(3-(2-((3-Amino-1-methyl-1H-pyrazol-4-yl)amino)pyrimidin-4-yl)phenyl)isoxazol-5-yl)-3-hydroxy-1-methylpyrrolidin-2-one] | > 500
10 | CN1CC[C@@](O)(c2cc(-c3cccc(-c4ccnc(N[C@H]5CCC[C@@H](O)C5)n4)n3)no2)C1=O [Example 450, (R)-3-Hydroxy-3-(3-(6-(2-(((1S,3R)-3-hydroxycyclohexyl)amino)pyrimidin-4-yl)pyridin-2-yl)isoxazol-5-yl)-1-methylpyrrolidin-2-one] | 50 to 500
11 | CN1CC[C@@](O)(c2cc(-c3cccc(-c4ccnc(Nc5cn(C)nc5F)n4)n3)no2)C1=O [Example 262, (R)-3-(3-(6-(2-((3-Fluoro-1-methyl-1H-pyrazol-4-yl)amino)pyrimidin-4-yl)pyridin-2-yl)isoxazol-5-yl)-3-hydroxy-1-methylpyrrolidin-2-one] | < 50
12 | CN1CC[C@@](O)(c2cc(-c3cccc(-c4ccnc(Nc5cnn6c5CN(CC5CC5)CC6)n4)n3)no2)C1=O [Example 433, (R)-3-(3-(6-(2-((5-(Cyclopropylmethyl)-4,5,6,7-tetrahydropyrazolo[1,5-a]pyrazin-3-yl)amino)pyrimidin-4-yl)pyridin-2-yl)isoxazol-5-yl)-3-hydroxy-1-methylpyrrolidin-2-one] | < 50
13 | CN1CC[C@@](O)(c2cn(-c3cccc(-c4ccnc(Nc5cnn(C)c5Cl)n4)n3)cn2)C1=O (single isomer, unassigned) [Example 107] | > 500
14 | C[C@H](Nc1nccc(-c2cccc(-c3cc([C@]4(O)CCN(C)C4=O)on3)n2)n1)C(=O)N(C)C [Example 176, (S)-2-((4-(6-(5-((R)-3-Hydroxy-1-methyl-2-oxopyrrolidin-3-yl)isoxazol-3-yl)pyridin-2-yl)pyrimidin-2-yl)amino)-N,N-dimethylpropanamide] | 50 to 500
15 | CN1CC[C@@](O)(c2cc(-c3cccc(-c4ccnc(Nc5ncccc5F)n4)n3)no2)C1=O [Example 331, (R)-3-(3-(6-(2-((3-Fluoropyridin-2-yl)amino)pyrimidin-4-yl)pyridin-2-yl)isoxazol-5-yl)-3-hydroxy-1-methylpyrrolidin-2-one] | > 500
16 | CN1CC[C@](O)(c2cnc(-c3cccc(-c4ccnc(Nc5ccn(C)n5)n4)n3)s2)C1=O (single isomer, unassigned) [Example 79] | > 500
17 | C[C@@H](Nc1nccc(-c2cccc(-c3cc([C@]4(O)CCN(C)C4=O)on3)n2)n1)c1ccn2ccnc2c1 (single isomer, unassigned) [Example 164] | > 500
18 | CN1CC[C@@](O)(c2cc(-c3cccc(-c4ccnc(Nc5cnn(C)c5F)n4)n3)no2)C1=O [Example 329, (R)-3-(3-(6-(2-((5-Fluoro-1-methyl-1H-pyrazol-4-yl)amino)pyrimidin-4-yl)pyridin-2-yl)isoxazol-5-yl)-3-hydroxy-1-methylpyrrolidin-2-one] | < 50
19 | CN1CC[C@@](O)(c2cc(-c3cccc(-c4ccnc(Nc5cc6n(n5)CC5(CC5)C6)n4)n3)no2)C1=O [Example 300, (R)-3-(3-(6-(2-((4′H,6′H-Spiro[cyclopropane-1,5′-pyrrolo[1,2-b]pyrazol]-2′-yl)amino)pyrimidin-4-yl)pyridin-2-yl)isoxazol-5-yl)-3-hydroxy-1-methylpyrrolidin-2-one] | < 50
20 | Cc1nccc(Nc2nccc(-c3cccc(-n4cc([C@]5(O)CCN(C)C5=O)nn4)n3)n2)c1F [Example 326, (R)-3-(1-(6-(2-((3-Fluoro-2-methylpyridin-4-yl)amino)pyrimidin-4-yl)pyridin-2-yl)-1H-1,2,3-triazol-4-yl)-3-hydroxy-1-methylpyrrolidin-2-one] | < 50
21 | Cc1nn(-c2nccc(-c3cccc(-c4cc([C@]5(O)CCN(C)C5=O)on4)n3)n2)cc1N [Example 37, (R)-3-(3-(6-(2-(4-Amino-3-methyl-1H-pyrazol-1-yl)pyrimidin-4-yl)pyridin-2-yl)isoxazol-5-yl)-3-hydroxy-1-methylpyrrolidin-2-one] | > 500
22 | CN1CC[C@@](O)(c2cc(-c3cccc(-c4ccnc(Nc5nc(CN6CCCC6)cs5)n4)n3)no2)C1=O [Example 258, (R)-3-Hydroxy-1-methyl-3-(3-(6-(2-((4-(pyrrolidin-1-ylmethyl)thiazol-2-yl)amino)pyrimidin-4-yl)pyridin-2-yl)isoxazol-5-yl)pyrrolidin-2-one] | < 50
23 | CN1CC[C@@](O)(c2cn(-c3cccc(-c4ccnc(Nc5cnn(C)c5Cl)n4)n3)nn2)C1=O [Example 327, (R)-3-(1-(6-(2-((5-Chloro-1-methyl-1H-pyrazol-4-yl)amino)pyrimidin-4-yl)pyridin-2-yl)-1H-1,2,3-triazol-4-yl)-3-hydroxy-1-methylpyrrolidin-2-one] | < 50
24 | COc1ccc(Nc2nccc(-c3cccc(-c4cc([C@]5(O)CCN(C)C5=O)on4)n3)n2)nn1 [Example 255, (R)-3-Hydroxy-3-(3-(6-(2-((6-methoxypyridazin-3-yl)amino)pyrimidin-4-yl)pyridin-2-yl)isoxazol-5-yl)-1-methylpyrrolidin-2-one] | 50 to 500
25 | COc1cccnc1Nc1nccc(-c2cccc(-c3cc([C@]4(O)CCN(C)C4=O)on3)n2)n1 [Example 317, (R)-3-Hydroxy-3-(3-(6-(2-((3-methoxypyridin-2-yl)amino)pyrimidin-4-yl)pyridin-2-yl)isoxazol-5-yl)-1-methylpyrrolidin-2-one] | > 500
26 | CN1CC[C@@](O)(c2cc(-c3cccc(-c4ccnc(NCc5ccn(C)n5)n4)n3)no2)C1=O [Example 367, (R)-3-Hydroxy-1-methyl-3-(3-(6-(2-(((1-methyl-1H-pyrazol-3-yl)methyl)amino)pyrimidin-4-yl)pyridin-2-yl)isoxazol-5-yl)pyrrolidin-2-one] | 50 to 500
27 | Cc1c(Nc2nccc(-c3cccc(-c4cc([C@]5(O)CCN(C)C5=O)no4)n3)n2)cnn1C [Example 238, (R)-3-(5-(6-(2-((1,5-Dimethyl-1H-pyrazol-4-yl)amino)pyrimidin-4-yl)pyridin-2-yl)isoxazol-3-yl)-3-hydroxy-1-methylpyrrolidin-2-one] | < 50
28 | C[C@H](Nc1nccc(-c2cccc(-n3cc([C@]4(O)CCN(C)C4=O)nn3)n2)n1)c1cnn(C)c1 (single isomer, unassigned) [Example 119] | < 50
29 | CN(C)CCn1ccc(Nc2nccc(-c3cccc(-c4cc([C@]5(O)CCN(C)C5=O)on4)n3)n2)n1 [Example 126, (R)-3-(3-(6-(2-((1-(2-(Dimethylamino)ethyl)-1H-pyrazol-3-yl)amino)pyrimidin-4-yl)pyridin-2-yl)isoxazol-5-yl)-3-hydroxy-1-methylpyrrolidin-2-one] | < 50
30 | CN1CC[C@@](O)(c2cn(-c3cccc(-c4ccnc(Nc5cn(C)nc5OCC(F)F)n4)n3)nn2)C1=O [Example 205, (R)-3-(1-(6-(2-((3-(2,2-Difluoroethoxy)-1-methyl-1H-pyrazol-4-yl)amino)pyrimidin-4-yl)pyridin-2-yl)-1H-1,2,3-triazol-4-yl)-3-hydroxy-1-methylpyrrolidin-2-one] | < 50
